Results on 3 compounds are retold here after patent US5932208A, “Compositions and methods for the use of such compositions in human therapeutics, characterized by the association of a muramyl peptide with a cytokine” (Vacsyn S.A., priority 1993, dated 1999).

Data set [1] concerns KHT sarcoma cells. The data set is described as follows: KHT sarcoma model in C3H/HeN mice, IL-2 with murametide. Type of data set: in vivo. The procedure: A murine model has been developed in C3H/HeN mice. KHT sarcoma cells are administered by the venous route. After 4 days and 6 days they are treated with:
c) the association of the two immunomodulators;
d) a fourth group is not treated.

Data set [2] concerns neopterine. Description: Neopterine test (RIA) on sera of healthy volunteers. In kind it is in vivo, human. As to conditions: for Influence on the amount of neopterine, in words: dose of 100 μg/kg alone; for Neopterine in serum: muramyl peptide 100 μg/Kg alone (α-IFN 0). On the procedure: (§1) They receive subcutaneously the mixtures described in the following table I of murabutide (MUB) or murametide (MUM) with α-interferon 2a (α-IFN).
(§2) Blood samples are taken before injection and 6 hours, 24 hours and 48 hours after injection, in order to collect the serum necessary to carry out the tests for neopterine, interleukin 1, 6 and 8, G-CSF, IL-1 RA and α-TNF.
(§3) The blood samples for the serum tests are centrifuged at 4° C. and 3000 rpm for 10' immediately after they are taken. The sera are stored at -20° C. The leucocyte counts and the neopterine and cytokine tests are carried out using commercial kits.
The tests are carried out on sera taken at 0, 24 and 48 hours. An RIA (Radio Immuno Assay) kit (Behring Diagnostic, France) is used. The results are expressed in […], and the normal values vary from […].

Data set [3] concerns neutrophils. The data set is described as follows: Neutrophil counts in healthy volunteers after single subcutaneous administration. Type of data set: in vivo, human. Particulars: α-IFN 0, muramyl peptide 100 μg/Kg alone; highest value during the 24 hours after administration. The procedure:
as §1
The subjects are monitored during the three days following the administration of the IFN and/or the muramyl peptides, and all of the tests and investigations necessary to carry out a phase I test are effected.
Haematological analysis with white corpuscle counts at the time of injection and then 6 hours, 12 hours, 24 hours, 36 hours, 60 hours and 72 hours after injection.
The leucocyte counts are carried out in a COULTER COUNTER automatic cell counter.
Neutrophils are the cells which are the most affected by leucopenic treatments. It is the reduction in the amount of neutrophils which is responsible for the reduction in the non-specific immune defences in subjects subjected to radiotherapy or to cytotoxic and/or myelotoxic chemotherapy. To make reading easier, only the neutrophil counts made at the time when their variation is at its greatest have been given.

Data set [4] concerns G-CSF. Description: G-CSF test on sera of healthy volunteers. In kind it is in vivo, human. As to conditions: α-IFN 0, muramyl peptide 100 μg/Kg alone; for Amounts of G-CSF in serum after 0 hour: before administration. The procedure:
as §1, §2, §3
These tests were carried out using the British Biotechnology Products Ltd. kit (see Table VI).

For data set [5], the system named is sTNFR2. The data set is described as follows: In vitro incubation of blood of healthy volunteers: sTNFR2 secreted. Type of data set: cell-based, human. The procedure:
(§4) Blood taken from healthy volunteers was incubated in vitro with different combinations associating murabutide and α-IFN. The murabutide was used at a dose of 20 μg/ml and the IFN was used at a dose of from 30 to 100 μ/ml. At different times in the course of incubation, blood samples are taken and the mononucleated cells are separated on a Ficoll gradient. The total RNA is extracted, purified and separated by electrophoresis. It is then analysed in accordance with the Schreck method in order to determine by a hybridisation technique what genes were induced by the treatment.
(§5) Studies similar to those described above were carried out in order to study the murabutide-GM-CSF association. These studies were carried out in vitro on the cells of healthy volunteers after incubation with immunomodulators alone or in association.
(§6) Specific cytokines were sought and measured in the supernatants (see Table XIII).

Data set [6] relates to IL-1 RA. Description: In vitro incubation of blood of healthy volunteers: IL-1 RA secreted. Type of data set: cell-based, human. The procedure:
as §4, §5, §6

Data set [7] deals with IL-6. Description: In vitro incubation of blood of healthy volunteers: IL-6 secreted. Type of data set: cell-based, human. On the procedure: as §4, §5, §6
In data set [8] the test system is Soluble TNF receptor (STNF-R). The data set is described as follows: Soluble TNF receptor (STNF-R) ELISA test in serum. Particulars: α-IFN 6 × 10^6 units and/or murabutide 100 μg/Kg. Type of data set: in vivo, human. The procedure: These tests are carried out by an ELISA test in the serum of subjects having 6M units of IFN. At that dose, there is already an appreciable increase in the amount of STNF-R but the addition of murabutide permits a significant increase in the secretion of that mediator.
A general note: In an ELISA, binding on a coated surface is turned into a signal by an enzyme label.

For data set [9], the system named is IL-6. The data set is described as follows: IL-6 test (Elisa) on sera of healthy volunteers. In kind it is in vivo, human. As to conditions: α-IFN 0, muramyl peptide 100 μg/Kg alone; 6 hours after administration. The procedure: as §1, §2, §3
The test is carried out using an Elisa test kit (British Biotechnology Products Ltd.) on sera taken at time 0 and after 6 hours. The figures express the pg/ml, the normal values are less than 6 pg.

In data set [10] the test system is circulating neutrophils. The data set is described as follows: Neutrophil count after repeated administration to humans (days 1, 3 and 5). Type of data set: in vivo, human. Particulars: α-IFN 2a 1 MU and/or murabutide 7 mg on days 1, 3 and 5. On the procedure:
Phase I/IIa tests were carried out on 3 groups of 6 healthy volunteers who received the following treatments on days 1, 3 and 5:
a) α-IFN 2a (1 MU) Roferon;
c) the association of the two immunostimulants.
By studying their influence on the number of circulating neutrophils.

The subject of data set [11] is Swiss mice. Description: Endotoxic shock (D-galactosamine + LPS) model in Swiss mice. Type of data set: in vivo. As to conditions: for Average % mortality / Number of dead mice per total tested, Exp. 1 / Number of dead mice per total tested, Exp. 2 / Number of dead mice per total tested, Exp. 3: intravenously, mortality after 48 hours. The procedure:
The administration of D-galactosamine with lipopolysaccharide (LPS) to Swiss mice induces endotoxic shock with at least 70% mortality in 24-48 hours. The prophylactic or therapeutic effect of murabutide was studied in this model in order to evaluate its anti-inflammatory activity when it is administered alone or in combination with α/β-IFN. […] On the contrary, pretreatment with a combination of murabutide and α/β-interferon induces significant protection with an incidence of mortality of only 33% (against 78% in the controls).
^1) The Swiss mice were tested intraperitoneally at time 0 with 18 mg
of Dgalactosamine + 50 ng of LPS. The mortality was measured after 48
^2) The compounds are administered intravenously either 3 hours befor

The test system of data set [12] is IL-1 receptor antagonist (IL-1 RA). Description: IL-1 receptor antagonist (IL-1 RA) test on sera of healthy volunteers. In kind it is in vivo, human. As to conditions: α-IFN 0, muramyl peptide 100 μg/Kg alone; 6 hours after administration. The procedure: as §1, §2, §3
Where [13] appears, read: GM-CSF 1 ng/ml, without or with Murabutide 20 μg/ml.
Setting [14] is: GM-CSF 5 ng/ml, without or with Murabutide 20 μg/ml.
Where [15] appears, read: +1 hr, Murabutide 15 mg/kg and/or α/β-IFN 1.25 × 10^6 IU/kg (alone: 11.25 × 10^6 IU/kg [sic]).
[16] abbreviates: Murabutide 15 mg/kg alone, -3 hrs.

Where “and” joins values, the source holds several entries; their conditions need not be identical. Identical values can stand only once.

Turning to `COC(=O)[C@@H](CCC(N)=O)NC(=O)[C@H](C)NC(=O)C(C)O[C@H]1[C@H](O)[C@@H](CO)O[C@H](O)[C@@H]1NC(C)=O` (stereo partly shown) [Murametide, murametide], the Antitumour activity result in data set [1] (mice having pulmonary sarcoma metastases, preliminary data) is reported as “no antitumour activity”. The “Toxicity of IL-2 in mice having tumours” value in data set [1] (mice having tumours) was “reduces the toxicity of IL-2”. Also, the “Influence on the amount of neopterine, in words” value in [2] is on record as “does not influence the amount significantly”. Besides, the values for the Neopterine in serum in data set [2] (T 0 hours), in data set [2] (T 24 hours) and in data set [2] (T 48 hours) were 5.43 ± 0.66 nM, 7.14 ± 1 nM and 7.39 ± 1.37 nM, respectively. The “Neutrophil count % base line” value in data set [3] is recorded as 279 ± 67 % base line. Moreover, the “Amounts of G-CSF in serum after 6 hours” value in data set [4] was 73 ± 115. For the same compound, the “Amounts of G-CSF in serum after 0 hour” value in data set [4] came to 61 ± 103.
With GM-CSF: cytokine GM-CSF, the “Average amounts of cytokines secreted: sTNFR2” value in data set [5] (setting [13]) amounted to 1027 ± 624 pg/mL; in [5] (setting [14]), 1359 ± 350 pg/mL. Further, the “Average amounts of cytokines secreted: IL-1 RA” value in [6] (setting [13]) was determined as 4.0 ± 1.4 ng/mL; in data set [6] (setting [14]) it was 8.7 ± 10.0 ng/mL. Besides, the “Average amounts of cytokines secreted: IL-6” value came to 2.0 ± 1.5 pg/mL in data set [7] (setting [13]) and 2.3 ± 2.1 pg/mL in data set [7] (setting [14]).
`CCCCOC(=O)[C@@H](CCC(N)=O)NC(=O)[C@H](C)NC(=O)[C@@H](C)O[C@H]1[C@H](O)[C@@H](CO)OC(O)[C@@H]1NC(C)=O` (stereo partly shown) [Murabutide, murabutide]: in [5] (Murabutide 20 μg/ml alone), the “Average amounts of cytokines secreted: sTNFR2” value worked out at 1171 ± 478 pg/mL. In addition, in data set [8], the “Amount of STNF-R in the serum, 0 hour” value stood at 195 ± 28 pg/mL and the “Amount of STNF-R in the serum, 6 hours” value was 616 ± 65 pg/mL. Further, in data set [8] (6 hours versus 0 hour), the STNF-R net increase was 31 ± 37 pg/mL. The “Amounts of IL-6 in the serum” value in data set [9] was 2.80 ± 1.60 pg/mL and 4.30 ± 1.80 pg/mL. For the same compound, in [10] (day of treatment 1), the “Neutrophil count (% of the base line) after 3 hours” value is listed as 139 ± 26 % of the base line, the “Neutrophil count (% of the base line) after 6 hours” value was 256 ± 51 % of the base line and the “Neutrophil count (% of the base line) after 12 hours” value was 227 ± 46 % of the base line. In addition, in [10] (day of treatment 3), the “Neutrophil count (% of the base line) after 3 hours” value is listed as 133 ± 24 % of the base line, the “Neutrophil count (% of the base line) after 6 hours” value is on record as 182 ± 27 % of the base line and the “Neutrophil count (% of the base line) after 12 hours” value was 176 ± 59 % of the base line. In data set [10] (day of treatment 5), the “Neutrophil count (% of the base line) after 3 hours” value is 107 ± 19 % of the base line, the “Neutrophil count (% of the base line) after 6 hours” value is 150 ± 28 % of the base line and the “Neutrophil count (% of the base line) after 12 hours” value is recorded as 153 ± 23 % of the base line. The “Average amounts of cytokines secreted: IL-1 RA” value in [6] (Murabutide 20 μg/ml alone) was 7.8 ± 6.0 ng/mL. Besides, in [11] (setting [15]), the Average % mortality came out at 31%; the “Number of dead mice per total tested, Exp. 1” value was 2/9; the “Number of dead mice per total tested, Exp. 2” value was 3/8; the “Number of dead mice per total tested, Exp. 3” value is on record as 3/9. Moreover, in data set [11] (setting [16]), the Average % mortality was 74%; the “Number of dead mice per total tested, Exp. 1” value is reported as 7/9; the “Number of dead mice per total tested, Exp. 2” value is on record as 7/8; the “Number of dead mice per total tested, Exp. 3” value was 6/10. The “Curative effect, in words” value in [11] (administration 1 hour after the induction of endotoxic shock) is recorded as “significant curative effect”. Besides, the “Prophylactic effect against the galactosamine/LPS mixture, in words” value in data set [11] (pretreatment of the mice) was “does not give rise to a prophylactic effect”. Moreover, the “Amounts of IL-1 RA in the serum” value in data set [12] is 496 ± 326 pg/mL. For the same compound, in data set [2], the “Influence on the amount of neopterine, in words” value is reported as “does not influence the amount significantly”. Besides, the Neopterine in serum in data set [2] (T 0 hours) is 6.37 ± 0.99 nM. The compound also showed a Neopterine in serum in [2] (T 24 hours) of 7.33 ± 0.75 nM. Moreover, the Neopterine in serum in data set [2] (T 48 hours) was 8.22 ± 1.39 nM. For the same compound, the “Neutrophil count % base line” value in [3] is listed as 268 ± 43 % base line. Moreover, the “Average amounts of cytokines secreted: IL-6” value in data set [7] (Murabutide 20 μg/ml alone) amounted to 15.5 ± 11.3 pg/mL. In addition, in data set [4], the “Amounts of G-CSF in serum after 6 hours” value is 18 ± 9 and the “Amounts of G-CSF in serum after 0 hour” value was less than 10.
